Measurements as given in patent US11980633B2, “Method for treating cancer using a combination of DNA-damaging agents and DNA-PK inhibitors” (Vertex Pharmaceuticals Incorporated, priority 2016, dated 2024).

Assays:
Type in all cases: cell-based
[1] = tested on: primary human tumors (NSCLC, pancreatic, gastric, esophageal); assay: TCA: Compound B-1 with bleomycin, primary tumors; design: Average Bliss score: scale not given here
Procedure: (§1) In both studies, cell viability was assessed after 6 days in culture. Statistical analysis of the combination matrix was performed to assess whether synergy, additivity, or antagonism of the combination treatments were observed.
(§2) Materials: Primary patient samples (See Tables 16 and 17, below) were excised from mice when they reached 500 mg to 1000 mg in size and processed immediately, or after overnight shipment. Tumors were serially passaged by subcutaneous implantation of 50 mg to 150 mg fragments into the flanks of immunocompromised (nude) mice. Tumors were used within the first 5 or 7 passages.
(§3) Tumor Chemosensitivity Assay (TCA): Primary tumor samples were grown and serially passaged in immunocompromised mice. Tumors were mechanically dissociated into small fragments (1 mm to 2 mm) with scalpels in phosphate buffered saline (PBS or RPMI) and centrifuged at 200×g for 5 minutes at room temperature in 50 mL centrifuge tubes. Samples were resuspended in 10 mL of cell dissociation reagent and enzymatically digested with mechanical agitation for 1 to 3 hours at 37° C., 5% CO2 to a single cell suspension. Ten mL of complete RPMI-1640 media was added to the cell mixture and pipetted up and down 4 to 5 times. The mixture was then passed through a 70 μm or 100 μm mesh strainer to remove undigested tumor. The filtrate was then centrifuged 200×g for 5 minutes at room temperature and resuspended in 20 mL complete RPMI-1640. This cell suspension was slowly layered onto 20 mL of room temperature Histopaque and centrifuged at 400×g for 15 minutes at room temperature without a brake. The interface was transferred to a new 50 mL centrifuge tube and 15 mL of complete RPMI-1640 was added. This suspension was centrifuged at 200×g at room temperature, and the resulting pellet was resuspended in 10 mL of complete PC-1 media, except for pancreatic tumors in which case Pancreatic Medium was used. Cells were diluted in Trypan blue, and viable cells that excluded the dye were counted. Only the larger, tumor cells were included in the cell count. Cells were diluted in complete PC-1 or Pancreatic media, as appropriate for the cells, and were plated at 15,000 to 20,000 cells per well in 100-135 μL in ultra-low attachment U-bottom plates.
(§4) Compound Addition: For these studies, a 10 mM stock of the DNA-PK inhibitor (Compound B-1 or Compound B-2) was made in DMSO and used to add to cells from most tumors with HP D300 Digital Dispenser (Tecan US, Morrisville, NC, USA), or diluted into the appropriate media (PC-1 or pancreatic media) as a 5-10× stock and added to cells (OVX001 and ENX001, 005). PC-1, pancreatic media, and chemotherapeutics were also added so that final well volume was 150 μL. Doxorubicin was made as DMSO stock of 1 or 10 mM and added to cells for most tumors with HP D300 Digital Dispenser, or diluted into PC-1 as 5-10× stock and added to cells (OVX001 and ENX001, 005). Cisplatin (cis-diammine platinum(II), dichloride) was prepared fresh to 10 mM in warm (60° C.) distilled water and diluted in PC-1 as a 5-10× stock. […] Different starting concentrations, dose ranges, and number of doses were used for each experiment based on the response data available at the time.
(§5) For bleomycin experiments, combinations with Compound B-1 at all concentrations were run in triplicate. A 6×3 matrix was designed on one plate, consisting of a 2-point concentration range of 0.73 μM and 2.2 μM Compound B-1 plus no treatment control, in 3 columns each of 6 wells. Bleomycin (plus ‘no treatment’ control) was added to 9 wells in rows of this plate. Similar 6×3 matrices were set up for additional agents with different starting concentrations for compound dilutions. For cisplatin experiments the starting concentration was 30 μM which was diluted 1:3. […] For doxorubicin hydrochloride experiments the starting concentration was 5 μM doxorubicin which was diluted 1:3. For gemcitabine experiments the starting concentration was 5 μM gemcitabine which was diluted 1:3. […]

[2] = tested on: primary human tumors (esophageal, gastric); assay: TCA: Compound B-1 with 5-FU, primary tumors
Procedure: as §1, §2, §3, §4, §5

[3] = tested on: primary human tumors (esophageal, gastric); assay: TCA: Compound B-1 with carboplatin, primary tumors
Procedure: as §1, §2, §3, §4, §5

CNC(=O)c1ccnc2c([C@H](C)CNc3cc(-c4cnc(C)nc4)ncn3)cccc12 [Compound B-1]
number of tumors that showed synergy or additivity ([1]; of twenty tumors assessed): 20 tumors | tumors that showed strong synergy ([1]; six of 20 tumors): 30% | Average Bliss score ([1]; tumor ESX005, Esophageal): 6 | Synergy/Additivity/Antagonism ([1]; tumor ESX005, Esophageal): Synergistic (greater than 5 are considered synergistic) | Average Bliss score ([1]; tumor ESX008, Esophageal): 7 | Synergy/Additivity/Antagonism ([1]; tumor ESX008, Esophageal): Synergistic (greater than 5 are considered synergistic) | Average Bliss score ([1]; tumor GAX001, Gastric): 14 | Synergy/Additivity/Antagonism ([1]; tumor GAX001, Gastric): Strongly Synergistic (greater than 10 are considered strongly synergistic) | Average Bliss score ([1]; tumor GAX007, Gastric): 5 | Synergy/Additivity/Antagonism ([1]; tumor GAX007, Gastric): Synergistic (greater than 5 are considered synergistic) | Average Bliss score ([1]; tumor GAX027, Gastric): 11 | Synergy/Additivity/Antagonism ([1]; tumor GAX027, Gastric): Strongly Synergistic (greater than 10 are considered strongly synergistic) | Average Bliss score ([1]; tumor OD25982, Lung (NSCLC)): 4 | Synergy/Additivity/Antagonism ([1]; tumor OD25982, Lung (NSCLC)): Additive (Values between 5 and −5 are considered additive) | Average Bliss score ([1]; tumor OD26131, Lung (NSCLC)): 9 | Synergy/Additivity/Antagonism ([1]; tumor OD26131, Lung (NSCLC)): Synergistic (greater than 5 are considered synergistic) | Average Bliss score ([1]; tumor OD26749, Lung (NSCLC)): 10 | Synergy/Additivity/Antagonism ([1]; tumor OD26749, Lung (NSCLC)): Strongly Synergistic (greater than 10 are considered strongly synergistic) | Average Bliss score ([1]; tumor OD29498, Lung (NSCLC)): 3 | Synergy/Additivity/Antagonism ([1]; tumor OD29498, Lung (NSCLC)): Additive (Values between 5 and −5 are considered additive) | Average Bliss score ([1]; tumor OD33117, Lung (NSCLC)): 9 | Synergy/Additivity/Antagonism ([1]; tumor OD33117, Lung (NSCLC)): Synergistic (greater than 5 are considered synergistic) | Average Bliss score ([1]; tumor OD33966, Lung (NSCLC)): 3 | Synergy/Additivity/Antagonism ([1]; tumor OD33966, Lung (NSCLC)): Additive (Values between 5 and −5 are considered additive) | Average Bliss score ([1]; tumor OD36088, Lung (NSCLC)): 14 | Synergy/Additivity/Antagonism ([1]; tumor OD36088, Lung (NSCLC)): Strongly Synergistic (greater than 10 are considered strongly synergistic) | Average Bliss score ([1]; tumor P110323, Pancreatic): 10 | Synergy/Additivity/Antagonism ([1]; tumor P110323, Pancreatic): Strongly Synergistic (greater than 10 are considered strongly synergistic) | Average Bliss score ([1]; tumor P110325, Pancreatic): 0 | Synergy/Additivity/Antagonism ([1]; tumor P110325, Pancreatic): Additive (Values between 5 and −5 are considered additive) | Average Bliss score ([1]; tumor P110408, Pancreatic): 7 | Synergy/Additivity/Antagonism ([1]; tumor P110408, Pancreatic): Synergistic (greater than 5 are considered synergistic) | Average Bliss score ([1]; tumor P110413, Pancreatic): 6 | Synergy/Additivity/Antagonism ([1]; tumor P110413, Pancreatic): Synergistic (greater than 5 are considered synergistic) | Average Bliss score ([1]; tumor P110504, Pancreatic): 8 | Synergy/Additivity/Antagonism ([1]; tumor P110504, Pancreatic): Synergistic (greater than 5 are considered synergistic) | Average Bliss score ([1]; tumor P110603, Pancreatic): 14 | Synergy/Additivity/Antagonism ([1]; tumor P110603, Pancreatic): Strongly Synergistic (greater than 10 are considered strongly synergistic) | Average Bliss score ([1]; tumor TS110310, Lung (NSCLC)): 2 | Synergy/Additivity/Antagonism ([1]; tumor TS110310, Lung (NSCLC)): Additive (Values between 5 and −5 are considered additive) | Average Bliss score ([1]; tumor YAS111611, Lung (NSCLC)): 6 | Synergy/Additivity/Antagonism ([1]; tumor YAS111611, Lung (NSCLC)): Synergistic (greater than 5 are considered synergistic) | tumors that showed synergy or additivity ([2]; 5 tumors): 100% | Average Bliss score ([2]; tumor ESX005, Esophageal): −1 | Synergy/Additivity/Antagonism ([2]; tumor ESX005, Esophageal): Additive (Values between 5 and −5 are considered additive) | Average Bliss score ([2]; tumor ESX008, Esophageal): −2 | Synergy/Additivity/Antagonism ([2]; tumor ESX008, Esophageal): Additive (Values between 5 and −5 are considered additive) | Average Bliss score ([2]; tumor GAX001, Gastric): 6 | Synergy/Additivity/Antagonism ([2]; tumor GAX001, Gastric): Synergistic (greater than 5 are considered synergistic) | Average Bliss score ([2]; tumor GAX007, Gastric): 0 | Synergy/Additivity/Antagonism ([2]; tumor GAX007, Gastric): Additive (Values between 5 and −5 are considered additive) | Average Bliss score ([2]; tumor GAX027, Gastric): 4 | Synergy/Additivity/Antagonism ([2]; tumor GAX027, Gastric): Additive (Values between 5 and −5 are considered additive) | tumors that showed synergy or additivity ([3]; 5 tumors): 100% | Average Bliss score ([3]; tumor ESX005, Esophageal): 3 | Synergy/Additivity/Antagonism ([3]; tumor ESX005, Esophageal): Additive (Values between 5 and −5 are considered additive) | Average Bliss score ([3]; tumor ESX008, Esophageal): 5 | Synergy/Additivity/Antagonism ([3]; tumor ESX008, Esophageal): Synergistic (greater than 5 are considered synergistic) | Average Bliss score ([3]; tumor GAX001, Gastric): 2 | Synergy/Additivity/Antagonism ([3]; tumor GAX001, Gastric): Additive (Values between 5 and −5 are considered additive) | Average Bliss score ([3]; tumor GAX007, Gastric): 4 | Synergy/Additivity/Antagonism ([3]; tumor GAX007, Gastric): Additive (Values between 5 and −5 are considered additive) | Average Bliss score ([3]; tumor GAX027, Gastric): 4 | Synergy/Additivity/Antagonism ([3]; tumor GAX027, Gastric): Additive (Values between 5 and −5 are considered additive)
